Source: patent US20080051447A1, “Treatment Of Hypercholesterolemia, Hypertriglyceridemia And Cardiovascular-Related Conditions Using Phospholipase-A2 Inhibitors” (priority 2005, published 2008)
Each block holds one molecule with its values, some of them ahead of it.

Assays:
[1] = molecular target: human pancreatic secreted PLA2 (hps PLA2) (Homo sapiens, UniProt P04054); conditions: reported activity data; cited from earlier work
[2] = tested on: wild-type C57BL/6 mice on high fat/high sucrose diet; experiment: Fasting serum glucose in mice on high fat/high sucrose diabetogenic diet (Example 5B); assay type: in vivo; conditions: low dose 25 mg/kg/day (group 2)
Experimental: (§1) ILY-4001 (FIG. 2) was evaluated as a PLA2 IB inhibitor in a set of experiments using wild-type mice and genetically deficient PLA2 (−/−) mice (also referred to herein as PLA2 knock-out (KO) mice). In these experiments, wild-type and PLA2 (−/−) mice were maintained on a high fat/high sucrose diet, details of which are described below.
(§2) Briefly, four groups were set up, each having six mice. Three of the groups included six wild-type PLA2 (+/+) mice in each group (eighteen mice total), and one of the groups included six genetically deficient PLA2 (−/−) mice. One of the wild-type groups was used as a wild-type control group, and was not treated with ILY-4001. The other two wild-type groups were treated with ILY-4001—one group at a lower dose (indicated as “L” in Table 1) of 25 mg/kg/day, and the other at a higher dose (indicated as “H” in Table 1) of 90 mg/kg/day. The group comprising the PLA2 (−/−) mice was used as a positive control group.
The experimental protocol used in this study was as follows. […]
Body weight measurements were taken for all animals in all treatment and control groups at the beginning of the treatment period and at 4 weeks and 10 weeks after initiation of the study. […] Cholesterol and triglyceride levels were determined from blood draws taken at the beginning of the treatement (baseline) and at ten weeks. […]

[3] = tested on: wild-type C57BL/6 mice on high fat/high sucrose diet; experiment: Serum cholesterol and triglycerides in mice on high fat/high sucrose diabetogenic diet (Example 5C); assay type: in vivo; conditions: 10 weeks
Experimental: as §1, §2
(§3) The experimental protocol used in this study was as follows. The four groups of mice, including wild type and isogenic PLA2 (−/−) C57BL/J mice were acclimated for three days on a low fat/low carbohydrate diet. After the three day acclimation phase, the animals were fasted overnight and serum samples taken to establish baseline plasma cholesterol, triglyceride, and glucose levels, along with baseline body weight. The mice in each of the treatment groups were then fed a high fat/high sucrose diabetogenic diet (Research Diets D12331). 1000 g of the high fat/high sucrose D12331 diet was composed of casein (228 g), DL-methionine (2 g), maltodextrin 10 (170 g), sucrose (175 g), soybean oil (25 g), hydrogenated coconut oil (333.5 g), mineral mix S10001 (40 g), sodium bicarbonate (10.5 g), potassium citrate (4 g), vitamin mix V10001 (10 g), and choline bitartrate (2 g). This diet was supplemented with ILY-4001 treatments such that the average daily dose of the compound ingested by a 25 g mouse was: 0 mg/kg/day (wild-type control group and PLA2 (−/−) control group); 25 mg/kg/day (low-dose wild-type treatment group), or 90 mg/kg/day (high-dose wild-type treatment group). The animals were maintained on the high fat/high sucrose diet, with the designated ILY-4001 supplementation, for a period of ten weeks.
Body weight measurements were taken for all animals in all treatment and control groups at the beginning of the treatment period and at 4 weeks and 10 weeks after initiation of the study. (See Example 5A). Blood draws were also taken at the beginning of the treatment period (baseline) and at 4 weeks and 10 weeks after initiation of the study, in order to determine fasting glucose (See Example 5B). Cholesterol and triglyceride levels were determined from blood draws taken at the beginning of the treatement (baseline) and at ten weeks. […]

[4] = Pharmokinetic study, bioavailability (Example 6C); assay type: in vivo, mice; conditions: ORAL 30 mg/kg
Source text: This example characterized ILY-4001 [2-(3-(2-amino-2-oxoacetyl)-1-(biphenyl-2-ylmethyl)-2-methyl-1H-indol-4-yloxy)acetic acid], alternatively referred to herein as methyl indoxam, with respect to activity, as determined by IC50 assay (Example 6A), with respect to cell absorbtion, as determined by in-vitro Caco-2 assay (Example 6B) and with respect to bioavailability, as determined using in-vivo mice studies (Example 6C).
This example evaluated the bioavailability of ILY-4001 [2-(3-(2-amino-2-oxoacetyl)-1-(biphenyl-2-ylmethyl)-2-methyl-1H-indol-4-yloxy)acetic acid], alternatively referred to herein as methyl indoxam. […]
Bioavailability was calculated as a ratio of AUC-oral/AUC-intravenous (IV). To determine this ratio, a first set of subject animals were given a measured intravenous (IV) dose of ILY-4001, followed by a determination of ILY-4001 levels in the blood at various time points after administration (e.g., 5 minutes through 24 hours). Another second set of animals was similarly dosed using oral administration, with blood levels of ILY-4001 determined at various time points after administration (e.g., 30 minutes through 24 hours). The level of ILY-4001 in systemic circulation were determined by generally accepted methods (for example as described in Evans, G., A Handbook of Bioanalysis and Drug Metabolism. Boca Raton, CRC Press (2004)). […]

[5] = tested on: wild-type C57BL/6 mice on high fat/high sucrose diet; experiment: Body weight gain in mice on high fat/high sucrose diabetogenic diet (Example 5A); assay type: in vivo; conditions: for body weight gain compared to the wild-type control group: week 4 and week 10
Experimental: as §1, §2, §3
Body weight measurements were taken for all animals in all treatment and control groups at the beginning of the treatment period and at 4 weeks and 10 weeks after initiation of the study. (See Example 5A). Blood draws were also taken at the beginning of the treatment period (baseline) and at 4 weeks and 10 weeks after initiation of the study, in order to determine fasting glucose (See Example 5B). Cholesterol and triglyceride levels were determined from blood draws taken at the beginning of the treatement (baseline) and at ten weeks. (See Example 5C).
In the study generally described above in Example 5, body weight measurements were taken for all animals in all treatment and control groups at the beginning of the treatment period and at 4 weeks and 10 weeks after initiation of the study.

Caco-2 cells = experiment: Caco-2 permeability study (Example 6B); assay type: in vitro ADME, human
Experimental: The culture medium was refreshed every 48 hours.

human PLA2 IB enzyme = human PLA2 IB enzyme (Homo sapiens, UniProt P04054); conditions: pyrene substrate release from vesicles (Singer, Ghomashchi et al. 2002); read-out: IC50 versus the human PLA2 IB enzyme; cited from earlier work
human PLA2 IB enzyme, sequence (P04054 23-148): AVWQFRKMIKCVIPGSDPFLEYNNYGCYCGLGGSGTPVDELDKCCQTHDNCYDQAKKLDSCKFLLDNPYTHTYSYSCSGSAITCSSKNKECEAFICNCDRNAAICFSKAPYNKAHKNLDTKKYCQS

mouse PLA2 IB enzyme = mouse PLA2 IB enzyme (Mus musculus, UniProt Q9Z0Y2); conditions: pyrene substrate release from vesicles (Singer, Ghomashchi et al. 2002); read-out: IC50 versus the mouse PLA2 IB enzyme; cited from earlier work
mouse PLA2 IB enzyme, sequence (Q9Z0Y2 23-146): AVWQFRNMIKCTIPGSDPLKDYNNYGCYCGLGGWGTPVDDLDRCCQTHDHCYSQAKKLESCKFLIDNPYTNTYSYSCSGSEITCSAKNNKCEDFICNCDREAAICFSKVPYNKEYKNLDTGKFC

Stability at low pH = assay type: physicochemical; conditions: predicted to survive passage through the stomach
[6] = molecular target: porcine pancreatic secreted PLA2 (pps PLA2) (Sus scrofa, UniProt P00592); conditions: reported activity data; cited from earlier work
porcine pancreatic secreted PLA2 (pps PLA2), sequence (P00592 23-146): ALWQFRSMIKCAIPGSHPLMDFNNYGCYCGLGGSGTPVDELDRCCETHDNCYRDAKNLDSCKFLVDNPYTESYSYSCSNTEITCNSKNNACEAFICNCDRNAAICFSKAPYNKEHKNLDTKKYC

[7] = high dose 90 mg/kg/day (group 3)
[8] = low dose 25 mg/kg/day (group 2)

human pancreatic secreted PLA2 (hps PLA2), sequence (P04054 23-148): as the sequence (P04054 23-148) above

Molecule: Cc1c(C(=O)C(N)=O)c2c(CCC(=O)O)cccc2n1Cc1ccccc1
- IC50 [1]: > 100000 nM

Molecule: Cc1c(C(=O)C(N)=O)c2c(OCC(=O)O)cccc2n1Cc1ccccc1-c1ccccc1 [ILY-4001, 2-(3-(2-amino-2-oxoacetyl)-1-(biphenyl-2-ylmethyl)-2-methyl-1H-indol-4-yloxy)acetic acid]
- fasting glucose levels ([2]; week four): moderately beneficial effect
- fasting glucose levels ([2]; week ten): a beneficial effect was not observed
- plasma levels of cholesterol [3, 7]: substantially reduced
- plasma levels of triglycerides [3, 7]: substantially reduced
- plasma levels of cholesterol [3, 8]: substantially reduced
- plasma levels of triglycerides [3, 8]: substantially reduced
- level of non-absorption from the GI tract into systemic circulation [4]: ~72%
- body weight gain relative to PLA2 (−/−) mice ([5]; 25 mg/kg/d (low-dose) in diet, ten weeks): modulated to an extent comparable to that achieved in the PLA2 (−/−) mice
- body weight gain relative to PLA2 (−/−) mice ([5]; 25 mg/kg/d in diet, four weeks): modulated to an extent approaching that achieved in the PLA2 (−/−) mice
- body weight gain compared to the wild-type control group ([5]; 25 mg/kg/d in diet): significantly reduced body weight gains
- body weight gain relative to PLA2 (−/−) mice ([5]; 90 mg/kg/d in diet, four weeks): modulated to an extent approaching that achieved in the PLA2 (−/−) mice
- body weight gain compared to the wild-type control group ([5]; 90 mg/kg/d in diet): significantly reduced body weight gains
- apparent permeability (Caco-2 cells; Caco-2 monolayers, apical to basolateral, 50 ug/ml): around 1.66×10^−7 cm/s
- absorbtion from the GI lumen (Caco-2 cells; based on Caco-2 assays and pharmokinetic studies): relatively low absorbtion
- IC50 (human PLA2 IB enzyme): ~200 nM
- IC50 (mouse PLA2 IB enzyme): ~150 nM
- stability at low pH (Stability at low pH): stable at low pH

- apparent permeability (paracellular transport control) (Caco-2 cells; Caco-2): around 2.82×10^−7+/−0.37×10^−7 cm/s
Molecule: Lucifer Yellow [reference compound]

Molecule: Cc1c(CC(=O)NN)c2cc(OCCCC(=O)O)ccc2n1Cc1ccccc1
- IC50 hps PLA2 [1]: no activity
- IC50 pps PLA2 [6]: no activity

Molecule: Cc1c(C(=O)C(N)=O)c2c(/C=C/C(=O)O)cccc2n1Cc1ccccc1
- IC50 [1]: > 100000 nM
